Measured values taken from US20090131437A1, “DISUBSTITUTED UREAS AS KINASE INHIBITORS” (CORIUM INTERNATIONAL, INC., priority 2005, published 2009).

melting point [°C]	SMILES
141 to 142	CC(C)(C)c1cc(NC(=O)Nc2ccc(Oc3cc(N)ncn3)cc2F)n(-c2ccc(F)cc2)n1 [Example 14, 1-[4-(6-Amino-pyrimidin-4-yloxy)-2-fluoro-phenyl]-3-[5-tert-butyl-2-(4-fluoro-phenyl]-2H-pyrazol-3-yl]-urea]
146 to 147	CNc1cc(Oc2ccc(NC(=O)Nc3cc(C(C)(C)C)nn3-c3cccc(C(=O)N4CCN(C)CC4)c3)cc2)ncn1 [Example 15, 1-{5-tert-Butyl-2-[3-(4-methyl-piperazine-1-carbonyl)-phenyl]-2H-pyrazol-3-yl}-3-[4-(6-methylamino-pyrimidin-4-yloxy)-phenyl]-urea]
